In patent US9249125B2, “Pyrazole derivatives as p38 MAP inhibitors” (RESPIVERT LIMITED, priority 2012, dated 2016):

Tests used:
[1] = system: HRV16; assay: HRV16 induced CPE in MRC5 cells; format: cell-based, human rhinovirus; details: MRC5 cells; screened at concentrations up to 0.32 ng/mL
Procedure: The supernatants are aspirated, and then fresh media added followed by incubation for 4 days. Where appropriate, cells are pre-incubated with compound or DMSO for 2 hr, and the compounds and DMSO added again after washout of the virus.
Supernatants are aspirated and incubated with methylene blue solution (100 μL, 2% formaldehyde, 10% methanol and 0.175% Methylene Blue) for 2 hr at RT. […] The percentage inhibition for each well is calculated. The IC50 value is calculated from the concentration-response curve generated by the serial dilutions of the test compounds.

[2] = system: PBMC cells; assay: Cell mitosis assay; format: cell-based, human
Procedure: Peripheral blood mononucleocytes (PBMCs) from healthy subjects are separated from whole blood (Quintiles, London, UK) using a density gradient (Histopaque-1077, Sigma-Aldrich, Poole, UK). The PBMCs (3 million cells per sample) are subsequently treated with 2% PHA (Sigma-Aldrich, Poole, UK) for 48 hr, followed by a 20 hr exposure to varying concentrations of test compounds. At 2 hr before collection, PBMCs are treated with demecolcine (0.1 μg/mL) (Invitrogen, Paisley, UK,) to arrest cells in metaphase. To observe mitotic cells, PBMCs are permeabilised and fixed by adding Intraprep (50 μL) (Beckman Coulter, France), and stained with anti-phospho-histone 3 (0.26 ng/L) (#9701; Cell Signalling, Danvers, Mass.) and propidium iodide (1 mg/mL) (Sigma-Aldrich, Poole, UK,) as previously described (Muehlbauer P. A. and Schuler M. J., Mutation Research, 2003, 537:117-130). Fluorescence is observed using an ATTUNE flow cytometer (Invitrogen, Paisley, UK), gating for lymphocytes.

[3] = system: LPS-induced airways neutrophilia in mice; assay: LPS-induced neutrophil accumulation in mice; format: in vivo; details: Test Substance at 0.2 mg/mL, intra tracheal, dosed 8 hr pre-LPS challenge
[4] = target: HCK (Homo sapiens (Human), UniProt P08631); assay: Enzyme binding assay (Kinomescan) HCK; details: read-out: % Inhibition for kinase binding at 500 nM HCK
Chain of HCK (P08631 22-526): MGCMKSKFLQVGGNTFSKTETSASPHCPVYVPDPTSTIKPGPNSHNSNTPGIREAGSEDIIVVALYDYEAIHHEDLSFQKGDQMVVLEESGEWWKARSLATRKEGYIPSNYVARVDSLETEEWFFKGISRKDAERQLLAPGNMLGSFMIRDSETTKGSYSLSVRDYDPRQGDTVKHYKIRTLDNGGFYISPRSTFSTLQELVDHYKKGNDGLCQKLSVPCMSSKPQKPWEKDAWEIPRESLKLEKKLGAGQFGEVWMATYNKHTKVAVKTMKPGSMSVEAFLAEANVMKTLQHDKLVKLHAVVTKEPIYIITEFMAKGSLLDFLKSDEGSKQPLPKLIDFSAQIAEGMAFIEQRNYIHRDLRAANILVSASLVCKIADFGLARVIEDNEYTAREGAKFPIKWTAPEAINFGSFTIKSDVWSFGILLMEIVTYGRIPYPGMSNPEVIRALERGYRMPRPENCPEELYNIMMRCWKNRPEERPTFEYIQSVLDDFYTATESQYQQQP
Procedure: The kinase enzyme binding activities of compounds disclosed herein were determined using a proprietary assay which measures active site-directed competition binding to an immobilized ligand (Fabian, M. A. et al., Nature Biotechnol., 2005, 23:329-336). These assays were conducted by DiscoverX (formerly Ambit; San Diego, Calif.). The percentage inhibition produced by incubation with a test compound is calculated relative to the non-inhibited control.

[5] = system: LPS-induced TNFα release in d-U937 cells; assay: LPS-induced TNFα release in d-U937 cells; format: cell-based; details: Homo sapiens, dU937, relative to 10 μg/mL BIRB796, read-out: LPS Induced Release of Cytokine in d-937 Cells TNFα REC50
Outline: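 PMA-differentiated (100 ng/mL, 48–72 hr) U937 cells pre-incubated with compound 2 hr, then stimulated with LPS (0.1 μg/mL, E. coli O111:B4) for 4 hr. Supernatant TNFα and IL-8 measured by sandwich ELISA; inhibition versus vehicle control, REC50 from concentration-response curve.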

CC(C)(C)c1cc(NC(=O)Nc2ccc(Oc3ccnc(Nc4ccc5[nH]ncc5c4)n3)c3ccccc23)n(-c2ccc(OCCN3CCOCC3)cc2)n1 [Example 12, 1-(4-((2-((1H-Indazol-5-yl)amino)pyrimidin-4-yl)oxy)naphthalen-1-yl)-3-(3-(tert-butyl)-1-(4-(2-morpholinoethoxy)phenyl)-1H-pyrazol-5-yl)urea]
HRV induced CPE in MRC5 Cells % Inhibition Observed [1]: 92% | Mitosis Assay % inhibition in PBMC cells at 5 μg/mL [2]: 58.6% | % Inhibition of neutrophil accumulation in BAL [3]: 46% | Neutrophil numbers in BAL (+/−SEM) [3]: 7.6 ± 1.5 ×10^5/mL | inhibition at 0.5 µM [4]: 100% | EC50 [5]: 1.6 nM
